Our source for the Activity, CLH and fraction unbound values is ChEMBL document CHEMBL4715821, “Discovery of 4-ethoxy-7H-pyrrolo[2,3-d]pyrimidin-2-amines as potent, selective and orally bioavailable LRRK2 inhibitors” (Bioorg Med Chem Lett, 2018).

The target in data set [1] is TGF-beta receptor type-2 (Homo sapiens) (UniProt P37173). As to the kind of experiment: Inhibition of wild-type human partial length TGFBR2 (I218 to K567 residues) expressed in bacterial expression system assessed as residual activity at 1 uM by Kinomescan method relative to control.
TGF-beta receptor type-2 (Homo sapiens), sequence (P37173 whole entry, the tested form may be a part): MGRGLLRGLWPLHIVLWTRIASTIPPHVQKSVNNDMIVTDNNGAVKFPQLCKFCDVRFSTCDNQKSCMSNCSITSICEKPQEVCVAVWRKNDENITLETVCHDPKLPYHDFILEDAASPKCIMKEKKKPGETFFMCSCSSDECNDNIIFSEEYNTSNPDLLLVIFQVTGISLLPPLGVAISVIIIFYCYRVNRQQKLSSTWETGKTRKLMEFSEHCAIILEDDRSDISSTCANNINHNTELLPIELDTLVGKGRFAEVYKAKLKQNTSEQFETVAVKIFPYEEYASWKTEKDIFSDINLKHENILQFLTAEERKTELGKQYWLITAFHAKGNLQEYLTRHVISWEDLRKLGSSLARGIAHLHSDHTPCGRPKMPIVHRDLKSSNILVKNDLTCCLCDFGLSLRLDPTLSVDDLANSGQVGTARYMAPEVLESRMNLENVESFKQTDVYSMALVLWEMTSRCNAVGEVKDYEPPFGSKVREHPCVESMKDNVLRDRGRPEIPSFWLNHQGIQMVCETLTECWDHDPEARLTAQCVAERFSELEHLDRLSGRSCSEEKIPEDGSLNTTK
For data set [2], the target named is T1, Interleukin-1 receptor-associated kinase 4 (Homo sapiens) (UniProt Q9NWZ3).
T1 sequence (whole entry): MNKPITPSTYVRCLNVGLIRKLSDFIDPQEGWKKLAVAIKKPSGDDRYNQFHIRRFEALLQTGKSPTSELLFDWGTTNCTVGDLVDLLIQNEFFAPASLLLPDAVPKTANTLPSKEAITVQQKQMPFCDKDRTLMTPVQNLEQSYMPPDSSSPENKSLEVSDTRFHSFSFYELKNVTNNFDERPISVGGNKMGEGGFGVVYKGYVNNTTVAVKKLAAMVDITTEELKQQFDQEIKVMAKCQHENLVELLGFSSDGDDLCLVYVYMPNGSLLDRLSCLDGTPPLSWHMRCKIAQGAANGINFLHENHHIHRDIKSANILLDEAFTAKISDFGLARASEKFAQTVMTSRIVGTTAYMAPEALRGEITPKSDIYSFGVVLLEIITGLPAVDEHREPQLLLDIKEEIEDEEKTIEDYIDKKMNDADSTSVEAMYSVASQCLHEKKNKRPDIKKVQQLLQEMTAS
As to the kind of experiment: Inhibition of wild-type human partial length IRAK4 (M1 to S460 residues) expressed in mammalian expression system assessed as residual activity at 1 uM by Kinomescan method relative to control.

The target in data set [3] is Serine/threonine-protein kinase Nek5 (Homo sapiens) (UniProt Q6P3R8). As to the kind of experiment: Inhibition of wild-type human partial length NEK5 (M1 to M279 residues) expressed in bacterial expression system assessed as residual activity at 1 uM by Kinomescan method relative to control.
Data set [4] has as its target Casein kinase I isoform delta (Homo sapiens) (UniProt P48730). As to the kind of experiment: Inhibition of CK1D (unknown origin) assessed as residual activity at 1 uM by Kinomescan method relative to control.
Data set [5] concerns the target Ribosomal protein S6 kinase alpha-6 (Homo sapiens) (UniProt Q9UK32). Put plainly: Inhibition of wild-type human partial length N-terminal RSK4 kinase domain 1 (M1 to E397 residues) expressed in mammalian expression system assessed as residual activity at 1 uM by Kinomescan method relative to control.
Data set [6] concerns the target CDK6/cyclin D1 (Homo sapiens) (UniProt P24385+Q00534). Put plainly: Inhibition of wild-type human full length CDK6 (M1 to A326 residues)/cyclin D1 expressed in mammalian expression system assessed as residual activity at 1 uM by Kinomescan method relative to control.
The target in data set [7] is Dual specificity protein kinase CLK3 (Homo sapiens) (UniProt P49761). As to the kind of experiment: Inhibition of wild-type human full length CLK3 (M1 to R490 residues) expressed in bacterial expression system assessed as residual activity at 1 uM by Kinomescan method relative to control.
Data set [8] deals with Fibroblast growth factor receptor 3 (Homo sapiens) (UniProt P22607). As to the kind of experiment: Inhibition of wild-type human partial length FGFR3 (R442 to S771 residues) expressed in bacterial expression system assessed as residual activity at 1 uM by Kinomescan method relative to control.
The target in data set [9] is Myosin light chain kinase (Homo sapiens) (UniProt Q32MK0). As to the kind of experiment: Inhibition of wild-type human partial length MLCK (D488 to K800 residues) expressed in bacterial expression system assessed as residual activity at 1 uM by Kinomescan method relative to control.
Myosin light chain kinase (Homo sapiens), sequence (Q32MK0 whole entry, the tested form may be a part): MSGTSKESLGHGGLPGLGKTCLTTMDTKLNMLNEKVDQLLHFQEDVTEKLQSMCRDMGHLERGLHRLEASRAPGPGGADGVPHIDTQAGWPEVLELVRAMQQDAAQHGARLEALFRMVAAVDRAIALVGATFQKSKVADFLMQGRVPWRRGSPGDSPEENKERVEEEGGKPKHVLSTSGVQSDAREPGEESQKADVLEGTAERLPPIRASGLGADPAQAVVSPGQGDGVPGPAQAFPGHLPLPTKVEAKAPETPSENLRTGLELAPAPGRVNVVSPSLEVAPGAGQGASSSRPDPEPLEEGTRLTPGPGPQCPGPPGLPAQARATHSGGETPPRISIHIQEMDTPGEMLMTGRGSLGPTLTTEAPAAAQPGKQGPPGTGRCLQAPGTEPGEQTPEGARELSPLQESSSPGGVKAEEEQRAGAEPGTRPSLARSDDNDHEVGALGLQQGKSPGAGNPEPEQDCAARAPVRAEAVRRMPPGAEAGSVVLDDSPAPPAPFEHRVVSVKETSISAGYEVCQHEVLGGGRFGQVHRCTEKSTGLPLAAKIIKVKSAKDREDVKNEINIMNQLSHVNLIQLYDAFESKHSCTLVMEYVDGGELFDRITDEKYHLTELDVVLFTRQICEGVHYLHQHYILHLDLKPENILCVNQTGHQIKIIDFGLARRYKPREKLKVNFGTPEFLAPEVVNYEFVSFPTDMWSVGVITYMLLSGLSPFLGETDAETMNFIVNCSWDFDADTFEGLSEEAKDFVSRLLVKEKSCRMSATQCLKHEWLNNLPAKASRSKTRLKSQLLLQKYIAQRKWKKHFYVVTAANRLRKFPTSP
Data set [10] in a line: Metabolic stability in human liver microsomes assessed as intrinsic clearance. In kind it is ADME, Microsome. Background: Microsomes from liver hold many membrane-bound enzymes, among them those of drug oxidation.
Data set [11] addresses Bone morphogenetic protein receptor type-1A (Homo sapiens) (UniProt P36894). Put plainly: Inhibition of wild-type human partial length BMPR1A (Q214 to I532 residues) expressed in bacterial expression system assessed as residual activity at 1 uM by Kinomescan method relative to control.
The target of data set [12] is Serine/threonine-protein kinase ULK1 (Homo sapiens) (UniProt O75385). As to the kind of experiment: Inhibition of wild-type human partial length ULK1 (M1 to T309 residues) expressed in mammalian expression system assessed as residual activity at 1 uM by Kinomescan method relative to control.
Serine/threonine-protein kinase ULK1 (Homo sapiens), sequence (O75385 whole entry, the tested form may be a part): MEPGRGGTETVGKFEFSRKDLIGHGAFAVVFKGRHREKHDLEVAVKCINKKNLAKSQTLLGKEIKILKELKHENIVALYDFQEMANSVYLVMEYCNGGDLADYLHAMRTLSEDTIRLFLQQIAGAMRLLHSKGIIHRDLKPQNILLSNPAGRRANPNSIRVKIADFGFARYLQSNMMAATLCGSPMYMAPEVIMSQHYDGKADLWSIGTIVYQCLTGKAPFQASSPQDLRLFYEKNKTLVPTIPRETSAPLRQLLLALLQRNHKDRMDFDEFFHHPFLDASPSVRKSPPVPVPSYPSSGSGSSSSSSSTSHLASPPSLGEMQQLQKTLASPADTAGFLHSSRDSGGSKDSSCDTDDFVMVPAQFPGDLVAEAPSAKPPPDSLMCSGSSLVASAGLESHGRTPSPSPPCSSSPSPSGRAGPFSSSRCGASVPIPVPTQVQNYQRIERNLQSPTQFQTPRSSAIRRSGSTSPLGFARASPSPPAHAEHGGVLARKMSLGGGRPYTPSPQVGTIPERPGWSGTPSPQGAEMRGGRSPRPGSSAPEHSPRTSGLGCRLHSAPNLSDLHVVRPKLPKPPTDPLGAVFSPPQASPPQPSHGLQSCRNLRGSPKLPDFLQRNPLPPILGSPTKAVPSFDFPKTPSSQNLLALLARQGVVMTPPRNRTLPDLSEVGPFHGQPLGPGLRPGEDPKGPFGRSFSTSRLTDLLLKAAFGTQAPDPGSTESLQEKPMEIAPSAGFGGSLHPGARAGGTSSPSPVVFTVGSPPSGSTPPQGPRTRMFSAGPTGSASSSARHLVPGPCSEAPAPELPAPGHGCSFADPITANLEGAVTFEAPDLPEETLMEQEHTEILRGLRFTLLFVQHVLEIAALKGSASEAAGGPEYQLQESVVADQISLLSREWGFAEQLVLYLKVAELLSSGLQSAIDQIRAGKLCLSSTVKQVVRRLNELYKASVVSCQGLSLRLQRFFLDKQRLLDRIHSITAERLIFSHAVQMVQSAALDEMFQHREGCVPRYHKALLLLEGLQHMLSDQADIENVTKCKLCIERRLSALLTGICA
Data set [13] is described as follows: Unbound fraction in human serum. In kind it is ADME, cell-free.
Data set [14] concerns the target Casein kinase II subunit alpha (Homo sapiens) (UniProt P68400). As to the kind of experiment: Inhibition of CK2alpha (unknown origin) assessed as residual activity at 1 uM by Kinomescan method relative to control.
Data set [15] addresses Mitogen-activated protein kinase kinase kinase kinase 4 (Homo sapiens) (UniProt O95819). As to the kind of experiment: Inhibition of wild-type human partial length MAP4K4 (M1 to R310 residues) expressed in bacterial expression system assessed as residual activity at 1 uM by Kinomescan method relative to control.
The target of data set [16] is Tyrosine-protein kinase Fer (Homo sapiens) (UniProt P16591). Put plainly: Inhibition of wild-type human partial length FER (S542 to T822 residues) expressed in bacterial expression system assessed as residual activity at 1 uM by Kinomescan method relative to control.
Tyrosine-protein kinase Fer (Homo sapiens), sequence (P16591 whole entry, looked up, the tested form may be a part): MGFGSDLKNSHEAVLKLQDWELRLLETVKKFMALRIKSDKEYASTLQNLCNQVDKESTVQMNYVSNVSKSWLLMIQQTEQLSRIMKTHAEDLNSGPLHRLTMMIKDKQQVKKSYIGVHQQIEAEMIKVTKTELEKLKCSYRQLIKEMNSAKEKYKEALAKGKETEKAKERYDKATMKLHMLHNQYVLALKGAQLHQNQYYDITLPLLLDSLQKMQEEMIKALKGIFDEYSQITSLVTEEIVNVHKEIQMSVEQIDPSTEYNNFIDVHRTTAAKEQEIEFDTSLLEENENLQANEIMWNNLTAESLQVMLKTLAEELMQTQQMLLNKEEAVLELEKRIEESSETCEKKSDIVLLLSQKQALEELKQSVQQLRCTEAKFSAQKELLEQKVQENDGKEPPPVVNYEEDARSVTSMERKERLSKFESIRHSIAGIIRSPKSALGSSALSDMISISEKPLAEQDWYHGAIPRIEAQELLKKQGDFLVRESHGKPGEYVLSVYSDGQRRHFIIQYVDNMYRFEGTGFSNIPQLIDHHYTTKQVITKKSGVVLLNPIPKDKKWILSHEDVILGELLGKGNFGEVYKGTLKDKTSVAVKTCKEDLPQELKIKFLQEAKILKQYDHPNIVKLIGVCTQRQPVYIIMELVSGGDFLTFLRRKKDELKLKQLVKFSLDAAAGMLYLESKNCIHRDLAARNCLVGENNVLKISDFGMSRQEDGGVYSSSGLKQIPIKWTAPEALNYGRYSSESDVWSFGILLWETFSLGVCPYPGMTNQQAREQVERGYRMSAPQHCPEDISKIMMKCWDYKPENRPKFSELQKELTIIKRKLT
The target in data set [17] is Serine/threonine-protein kinase D1 (Homo sapiens) (UniProt Q15139). Put plainly: Inhibition of wild-type human partial length PRKD1 (G551 to E870 residues) expressed in bacterial expression system assessed as residual activity at 1 uM by Kinomescan method relative to control.
For data set [18], the target named is Dual specificity mitogen-activated protein kinase kinase 6 (Homo sapiens) (UniProt P52564). Put plainly: Inhibition of MKK6 (unknown origin) assessed as residual activity at 1 uM by Kinomescan method relative to control.
The target of data set [19] is STE20-like serine/threonine-protein kinase (Homo sapiens) (UniProt Q9H2G2). Put plainly: Inhibition of wild-type human partial length SLK (S14 to A307 residues) expressed in bacterial expression system assessed as residual activity at 1 uM by Kinomescan method relative to control.
Data set [20] can be described thus: In vivo inhibition of LRRK2 in C57BL6 mouse assessed as reduction in Ser935 phosphorylation in kidney at 45 mg/kg, po after 1 hr by Western blot analysis. In kind it is functional. More on the design: scale not given: the % may be the effect or the level left. (In general: Immunoblotting shows a protein as a band on a membrane.)
The target in data set [21] is Serine/threonine-protein kinase N1 (Homo sapiens) (UniProt Q16512). As to the kind of experiment: Inhibition of wild-type human partial length PKN1 (E598 to C948 residues) expressed in bacterial expression system assessed as residual activity at 1 uM by Kinomescan method relative to control.
In data set [22] the target is G protein-coupled receptor kinase 6 (Homo sapiens) (UniProt P43250). As to the kind of experiment: Inhibition of GRK6 (unknown origin) assessed as residual activity at 1 uM by Kinomescan method relative to control.
G protein-coupled receptor kinase 6 (Homo sapiens), sequence (P43250 whole entry, looked up, the tested form may be a part): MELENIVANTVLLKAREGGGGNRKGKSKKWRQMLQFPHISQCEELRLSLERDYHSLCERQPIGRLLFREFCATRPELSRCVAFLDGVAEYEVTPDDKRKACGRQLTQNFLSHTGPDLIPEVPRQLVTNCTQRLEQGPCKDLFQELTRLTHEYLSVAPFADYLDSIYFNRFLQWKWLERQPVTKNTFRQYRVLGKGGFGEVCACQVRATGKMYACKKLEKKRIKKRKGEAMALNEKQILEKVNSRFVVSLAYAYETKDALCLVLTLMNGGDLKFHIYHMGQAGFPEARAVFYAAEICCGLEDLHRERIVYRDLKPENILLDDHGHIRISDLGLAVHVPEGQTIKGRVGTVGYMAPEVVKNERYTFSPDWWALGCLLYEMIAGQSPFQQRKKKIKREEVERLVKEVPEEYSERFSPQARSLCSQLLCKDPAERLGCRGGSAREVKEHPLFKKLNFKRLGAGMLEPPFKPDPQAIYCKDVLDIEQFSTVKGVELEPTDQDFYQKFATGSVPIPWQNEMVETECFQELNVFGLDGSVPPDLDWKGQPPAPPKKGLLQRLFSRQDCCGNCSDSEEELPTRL
In data set [23] the target is Mitogen-activated protein kinase kinase kinase kinase 2 (Homo sapiens) (UniProt Q12851). As to the kind of experiment: Inhibition of wild-type human partial length MAP4K2 (M1 to G318 residues) expressed in mammalian expression system assessed as residual activity at 1 uM by Kinomescan method relative to control.
Data set [24] deals with Myosin-IIIb (Homo sapiens) (UniProt Q8WXR4). Put plainly: Inhibition of wild-type human partial length MYO3B (M1 to D357 residues) expressed in bacterial expression system assessed as residual activity at 1 uM by Kinomescan method relative to control.

The fraction unbound is the share of the substance not bound to proteins or other matrix.

Ribosomal protein S6 kinase alpha-6 (Homo sapiens), sequence (Q9UK32 whole entry, the tested form may be a part): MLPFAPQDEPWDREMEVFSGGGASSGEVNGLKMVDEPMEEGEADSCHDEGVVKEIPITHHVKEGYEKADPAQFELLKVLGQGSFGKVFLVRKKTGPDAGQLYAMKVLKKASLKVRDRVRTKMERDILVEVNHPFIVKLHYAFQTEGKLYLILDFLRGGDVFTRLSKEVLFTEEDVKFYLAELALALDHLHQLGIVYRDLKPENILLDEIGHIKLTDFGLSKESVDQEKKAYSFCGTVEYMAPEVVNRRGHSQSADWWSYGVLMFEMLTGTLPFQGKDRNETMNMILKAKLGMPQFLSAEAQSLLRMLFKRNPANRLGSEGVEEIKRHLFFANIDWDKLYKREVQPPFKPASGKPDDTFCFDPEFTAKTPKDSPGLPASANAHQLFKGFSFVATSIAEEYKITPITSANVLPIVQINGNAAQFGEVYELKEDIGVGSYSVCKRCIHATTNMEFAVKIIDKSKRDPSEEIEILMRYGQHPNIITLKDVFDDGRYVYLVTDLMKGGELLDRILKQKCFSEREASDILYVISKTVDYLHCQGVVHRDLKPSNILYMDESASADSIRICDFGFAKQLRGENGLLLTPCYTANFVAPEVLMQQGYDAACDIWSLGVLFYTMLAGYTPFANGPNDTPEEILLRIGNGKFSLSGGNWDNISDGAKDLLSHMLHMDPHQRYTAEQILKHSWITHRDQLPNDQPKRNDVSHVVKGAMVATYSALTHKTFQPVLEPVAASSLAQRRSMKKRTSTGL
Casein kinase I isoform delta (Homo sapiens), sequence (P48730 whole entry, looked up, the tested form may be a part, canonical isoform): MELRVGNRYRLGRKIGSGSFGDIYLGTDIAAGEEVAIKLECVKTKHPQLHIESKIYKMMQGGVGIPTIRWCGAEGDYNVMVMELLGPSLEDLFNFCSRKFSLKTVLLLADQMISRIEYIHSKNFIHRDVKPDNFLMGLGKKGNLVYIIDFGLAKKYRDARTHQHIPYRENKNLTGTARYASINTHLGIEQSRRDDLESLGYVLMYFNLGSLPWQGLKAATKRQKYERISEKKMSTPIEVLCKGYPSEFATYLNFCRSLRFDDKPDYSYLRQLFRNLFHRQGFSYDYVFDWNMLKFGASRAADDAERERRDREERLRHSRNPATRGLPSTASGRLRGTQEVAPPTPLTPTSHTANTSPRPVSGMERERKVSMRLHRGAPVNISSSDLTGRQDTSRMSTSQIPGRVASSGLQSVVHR

As for `CCOc1nc(Nc2ccc(C(=O)N3CCOCC3)cc2OC)nc2[nH]ccc12`, the Activity in [1] was 104%; in data set [2], 104%; in [3] it was 94.8%; in [4], 80.2%; in data set [5], 87.5%; in data set [6] it was 98.8%. For the same molecule, the Activity in [7] was 90.1%; in data set [8] it was 103%; in data set [9] it was 15.8%; in [11], 94%; in data set [12] it was 86.1%; in data set [14], 79.9%. Further, the Activity came to 95.6% in [15]; 36.5% in [16]; 46.9% in [17]; 63.1% in data set [18]; 109% in data set [19]; 80% in data set [20]. For the same molecule, the Activity is 94.8% in [21], 95.6% in data set [22], 90.2% in data set [23] and 48.9% in data set [24]. Moreover, the CLH in data set [10] came to 1.1 mL/min/g. The same molecule yielded a free fraction (fraction unbound) in [13] of 0.059.
